{"source": "patent US10975049B2", "about": "“Nicotinyl alcohol ether derivative, preparation method therefor, and pharmaceutical composition and uses thereof” (Institute of Materia Medica, Chinese Academy of Medical …, priority 2016, dated 2021)", "key": {"[1]": {"test_system": "high metastatic melanoma B16F10", "experiment": "Lung metastasis model of high metastatic melanoma B16F10", "format": "in vivo, C57BL/6 mice", "settings": "for Tumor number X ± SD: lung; for TGI % (tumor growth inhibition rate): tumor number", "method": "The method in B16F10 lung metastasis model was as follows. The cultured B16F10 tumor cells were digested and centrifuged and washed for two times with sterile physiological saline and then counted. And the cell concentration was adjusted to 2.5×10^6/ml by physiological saline. 0.2 ml of cells were injected into the C57BL/6 mice through the tail vein, and the tumor cells will gather in the lung of the mice. After inoculation, the animals were randomly divided into two groups in next day. Each group had 6-7 mice. After weighing, the animals were dosed once each day. After 3 weeks, the mice were weighed and killed, the lung tissue was collected and weighed, and the number of lung tumors was counted after being fixed by the Bouin's Fluid. Finally, the tumor growth inhibition rate was calculated, and the tumor growth inhibition rate was used to evaluate the level of anti-tumor effect.\n(§1) In the study of the mechanism of the above models, the method of flow cytometry was adopted in measuring the total cell proportion of T cells of various types. The specific steps were as follows. The samples were treated at first. For blood tissue, the orbital blood was taken. The red cell lysate was used to remove the red blood cells, and then the PBS buffer was used for wash. After being washed, the cells were collected. For the tumor and spleen, the tissues were grinded with a homogenizer, and then diluted with PBS buffer, then filtered by 300 meshes of screen. After the number of cells was counted for each sample, 1×10^6 cells were added into EP tube and stained for flow antibody. After incubation for 1 h on ice, each sample was washed 2 times with PBS buffer. The cell population was analyzed by VERSE flow instrument of BD Company. The total number of cells in tumor tissue was 1×10^5 and the total number of cells in blood and spleen tissues was 1×10^4. The ratio of T cells to total number of cells was analyzed after flow cytometry."}, "[2]": {"test_system": "high metastatic melanoma B16F10", "experiment": "Subcutaneous xenograft model of high metastatic melanoma B16F10", "format": "in vivo, C57BL/6 or Bablc mice", "settings": "for TGI % (tumor growth inhibition rate): tumor weight", "method": "(§2) The method in subcutaneous xenograft tumor was as follows. The cultured specific tumor cells were digested and collected by centrifugation, and washed with sterile physiological saline for two times and then counted. The cell concentration was adjusted to 5×10^6/ml by physiological saline, and 0.2 ml of cell suspension was inoculated to the right armpit of C57BL/6 or Bablc mice. After inoculation, the animals were randomly divided into two groups in next day. Each group had 6-7 mice. After weighing, the animals were dosed once each day to monitor tumor size. When the tumor size reached to a certain size, the mice was weighed and blood was collected from mice orbit and then the mice were killed by removing the neck. The tumor tissue, thymus tissue and spleen tissue were collected and weighed respectively. Finally, the tumor growth inhibition rate was calculated, and the tumor growth inhibition rate was used to evaluate the level of anti-tumor effect.\nas §1"}, "Lewis lung cancer": {"test_system": "Lewis lung cancer", "experiment": "Mouse Lewis lung cancer hydrothorax model", "format": "in vivo, C57BL/6 mice", "settings": "10 mg", "method": "The method in Lewis lung cancer hydrothorax model was as follows: The subcutaneous xenograft tumor of Lewis lung cancer was homogenized and washed for two times with sterile physiological saline, and the cell concentration was adjusted to 2.5×10^5/ml by physiological saline. 0.2 ml of cells were injected into the thoracic cavity of C57BL/6 mice. After inoculation, the animals were randomly divided into two groups in next day. Each group had 6-7 mice. After weighing, the animals were dosed once each day. Animals were sacrificed when the weight of the animals in the control group suddenly dropped. The liquid in thoracic cavity was extracted with syringe and the volume of fluid was recorded."}, "mouse colon cancer MC38": {"test_system": "mouse colon cancer MC38", "experiment": "Subcutaneous xenograft model of mouse colon cancer MC38", "format": "in vivo, C57BL/6 or Bablc mice", "settings": "result in words", "method": "as §2"}, "mouse breast cancer EMT6": {"test_system": "mouse breast cancer EMT6", "experiment": "Subcutaneous xenograft model of mouse breast cancer EMT6", "format": "in vivo, C57BL/6 or Bablc mice", "method": "as §2"}, "[3]": {"target": "interaction between PD-1 and PD-L1 (Homo sapiens (Human), UniProt Q9NZQ7)", "sequence (Q9NZQ7 19-238)": "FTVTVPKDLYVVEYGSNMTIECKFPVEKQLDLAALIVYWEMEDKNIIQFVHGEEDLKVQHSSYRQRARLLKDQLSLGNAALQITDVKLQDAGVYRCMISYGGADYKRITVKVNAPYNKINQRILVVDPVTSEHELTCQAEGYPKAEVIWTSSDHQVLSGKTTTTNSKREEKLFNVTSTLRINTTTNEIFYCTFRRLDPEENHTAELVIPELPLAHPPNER", "experiment": "Cisbio PD-1/PD-L1 binding assay kit (HTRF)", "settings": "molecular level, read-out: IC50 (M), inhibitory activity on the interaction between PD-1 and PD-L1", "source_text": "1. In vitro activity evaluation: Cisbio PD-1/PD-L1 binding assay kit was applied for the detection method of in vitro enzymology level.\nScreening Principles and Methods of PD-1/PD-L1 Small Molecule Inhibitors\n1) Principle: PD-1 protein is with HIS tag, and PD-1 ligand PD-L1 is with hFc tag. Eu labeled anti-hFc antibody and XL665 labeled anti-HIS antibody are combined with the above two label proteins respectively. After laser excitation, energy can be transferred from donor Eu to receptor XL665, allowing XL665 to glow.\n2) Experimental method: The specific method can be referred to Cisbio's PD-1/PD-L1 Kit (item 64CUS000C-2). Reagents should be dispensed in the following order. For 384-well white ELISA plate, 2 μl of diluent or target compound diluted with diluent was added to each well, and then 4 μl of PD-1 protein and 4 μl of PD-L1 protein were added per well, incubated for 15 min at room temperature; and 10 μl of a mixture of anti-Tag1-Eu3^+ and anti-Tag2-XL665 was added per well and incubated for 1 h to 4 h at room temperature and the fluorescence signals at 665 nm and 620 nm were measured with an Envison instrument. HTRF rate=(665 nm/620 nm)*10^4. 8-10 concentrations were detected for each compound and IC50 was calculated by Graphpad software."}}}
{"smiles": "O=C([O-])[C@H](CO)NCc1cc(Cl)c(OCc2cccc(-c3ccccc3)c2Br)cc1OCc1cccnc1.[Na+]", "note": "[Example 4 sodium salt, (S)-Sodium N-(4-(2-bromo-3-phenylbenzyloxy)-5-chloro-2-(pyridin-3-yl-methyleneoxy)benzyl) serinate]", "values": [{"measurement": "number of lung metastases", "setting": "[1]; 15 mg/kg dose, result in words", "result": "significantly inhibit"}, {"measurement": "Body weight (g) Mean ± SD Begin", "setting": "[1]; 15 mg/kg", "result": "20.1 ± 0.9", "unit": "g"}, {"measurement": "Body weight (g) Mean ± SD End", "setting": "[1]; 15 mg/kg", "result": "21.5 ± 1.2", "unit": "g"}, {"measurement": "Tumor number X ± SD", "setting": "[1]; 15 mg/kg", "result": "12 ± 3"}, {"measurement": "TGI % (tumor growth inhibition rate)", "setting": "[1]; 15 mg/kg", "result": 42.3, "unit": "%"}, {"measurement": "Body weight (g) Mean ± SD Begin", "setting": "[1]; 45 mg/kg", "result": "20.3 ± 0.6", "unit": "g"}, {"measurement": "Body weight (g) Mean ± SD End", "setting": "[1]; 45 mg/kg", "result": "21.4 ± 0.3", "unit": "g"}, {"measurement": "Tumor number X ± SD", "setting": "[1]; 45 mg/kg", "result": "19 ± 15"}, {"measurement": "TGI % (tumor growth inhibition rate)", "setting": "[1]; 45 mg/kg", "result": 9.5, "unit": "%"}, {"measurement": "CD3+ percentage of T lymphocyte in mouse blood", "setting": "[1]; 15 mg", "result": "29.0 ± 3.7", "unit": "%"}, {"measurement": "CD4+ percentage of T lymphocyte in mouse blood", "setting": "[1]; 15 mg", "result": "17.8 ± 2.4", "unit": "%"}, {"measurement": "CD8+ percentage of T lymphocyte in mouse blood", "setting": "[1]; 15 mg", "result": "9.6 ± 0.8", "unit": "%"}, {"measurement": "CD3+ percentage of T lymphocyte in mouse blood", "setting": "[1]; 45 mg", "result": "23.2 ± 3.6", "unit": "%"}, {"measurement": "CD4+ percentage of T lymphocyte in mouse blood", "setting": "[1]; 45 mg", "result": "14.7 ± 2.5", "unit": "%"}, {"measurement": "CD8+ percentage of T lymphocyte in mouse blood", "setting": "[1]; 45 mg", "result": "7.6 ± 1.3", "unit": "%"}, {"measurement": "Tumorweight(g) X ± SD", "setting": "[2]; 15 mg/kg", "result": "0.93 ± 0.89", "unit": "g"}, {"measurement": "Body weight (g) Mean ± SD Begin", "setting": "[2]; 15 mg/kg", "result": "20.3 ± 0.4", "unit": "g"}, {"measurement": "Body weight (g) Mean ± SD End", "setting": "[2]; 15 mg/kg", "result": "21.8 ± 2.1", "unit": "g"}, {"measurement": "TGI % (tumor growth inhibition rate)", "setting": "[2]; 15 mg/kg", "result": 64.11, "unit": "%"}, {"measurement": "Tumorweight(g) X ± SD", "setting": "[2]; 45 mg/kg", "result": "2.57 ± 0.85", "unit": "g"}, {"measurement": "Body weight (g) Mean ± SD Begin", "setting": "[2]; 45 mg/kg", "result": "20.4 ± 0.9", "unit": "g"}, {"measurement": "Body weight (g) Mean ± SD End", "setting": "[2]; 45 mg/kg", "result": "23.8 ± 1.4", "unit": "g"}, {"measurement": "TGI % (tumor growth inhibition rate)", "setting": "[2]; 45 mg/kg", "result": 0.23, "unit": "%"}, {"measurement": "proportion of lymphocytes in the spleen samples", "setting": "[2]; result in words", "result": "increase"}, {"measurement": "proportion of tumor-infiltrating lymphocytes", "setting": "[2]; result in words", "result": "increase"}, {"measurement": "CD4+ (%) T lymphocytes in spleen", "setting": "[2]; spleen, 15 mg", "result": "27.0 ± 1.8", "unit": "%"}, {"measurement": "CD8+ (%) T lymphocytes in spleen", "setting": "[2]; spleen, 15 mg", "result": "13.6 ± 1.8", "unit": "%"}, {"measurement": "CD3+ (%) tumor-infiltrating T lymphocytes", "setting": "[2]; tumor, 15 mg", "result": "13.3 ± 6.9", "unit": "%"}, {"measurement": "CD4+ (%) tumor-infiltrating T lymphocytes", "setting": "[2]; tumor, 15 mg", "result": "7.2 ± 3.4", "unit": "%"}, {"measurement": "CD8+ (%) tumor-infiltrating T lymphocytes", "setting": "[2]; tumor, 15 mg", "result": "3.9 ± 1.4", "unit": "%"}, {"measurement": "hydrothorax incidence rate", "setting": "Lewis lung cancer", "result": 33, "unit": "%"}, {"measurement": "hydrothorax volume (mean)", "setting": "Lewis lung cancer", "result": 0.2, "unit": "mL"}, {"measurement": "hydrothorax incidence rate", "setting": "Lewis lung cancer; listed as sodium salt of Example 4 compound", "result": 33, "unit": "%"}, {"measurement": "antitumor effect in combination with Cyclophosphamide (CTX)", "setting": "mouse colon cancer MC38", "result": "synergistic antitumor effect"}, {"measurement": "inhibition effect on subcutaneous xenograft of MC38", "setting": "mouse colon cancer MC38", "result": "significant inhibition effect"}, {"measurement": "TGI % (tumor growth inhibition rate)", "setting": "mouse breast cancer EMT6; 1.5 mg/kg", "result": 13.1, "unit": "%"}, {"measurement": "Tumorweight(g) X ± SD", "setting": "mouse breast cancer EMT6; 1.5 mg/kg", "result": "1.5 ± 0.61", "unit": "g"}, {"measurement": "Body weight (g) Mean ± SD Begin", "setting": "mouse breast cancer EMT6; 1.5 mg/kg", "result": "18.4 ± 0.9", "unit": "g"}, {"measurement": "Body weight (g) Mean ± SD End", "setting": "mouse breast cancer EMT6; 1.5 mg/kg", "result": "22.0 ± 1.6", "unit": "g"}, {"measurement": "TGI % (tumor growth inhibition rate)", "setting": "mouse breast cancer EMT6; 5 mg/kg", "result": 20.2, "unit": "%"}, {"measurement": "Tumorweight(g) X ± SD", "setting": "mouse breast cancer EMT6; 5 mg/kg", "result": "1.37 ± 0.23", "unit": "g"}, {"measurement": "Body weight (g) Mean ± SD Begin", "setting": "mouse breast cancer EMT6; 5 mg/kg", "result": "18.4 ± 0.4", "unit": "g"}, {"measurement": "Body weight (g) Mean ± SD End", "setting": "mouse breast cancer EMT6; 5 mg/kg", "result": "21.0 ± 1.6", "unit": "g"}, {"measurement": "TGI % (tumor growth inhibition rate)", "setting": "mouse breast cancer EMT6; 10 mg/kg", "result": 22.3, "unit": "%"}, {"measurement": "Tumorweight(g) X ± SD", "setting": "mouse breast cancer EMT6; 10 mg/kg", "result": "1.34 ± 0.34", "unit": "g"}, {"measurement": "Body weight (g) Mean ± SD Begin", "setting": "mouse breast cancer EMT6; 10 mg/kg", "result": "18.4 ± 0.6", "unit": "g"}, {"measurement": "Body weight (g) Mean ± SD End", "setting": "mouse breast cancer EMT6; 10 mg/kg", "result": "21.6 ± 1.3", "unit": "g"}, {"measurement": "TGI % (tumor growth inhibition rate)", "setting": "mouse breast cancer EMT6; 15 mg/kg", "result": 14.7, "unit": "%"}, {"measurement": "Tumorweight(g) X ± SD", "setting": "mouse breast cancer EMT6; 15 mg/kg", "result": "1.47 ± 0.65", "unit": "g"}, {"measurement": "Body weight (g) Mean ± SD Begin", "setting": "mouse breast cancer EMT6; 15 mg/kg", "result": "18.5 ± 0.4", "unit": "g"}, {"measurement": "Body weight (g) Mean ± SD End", "setting": "mouse breast cancer EMT6; 15 mg/kg", "result": "22.0 ± 1.1", "unit": "g"}, {"measurement": "inhibition effect on mouse breast cancer EMT6", "setting": "mouse breast cancer EMT6; dose of 10 mg", "result": 20, "unit": "%"}, {"measurement": "inhibition effect on mouse breast cancer EMT6", "setting": "mouse breast cancer EMT6; dose of 15 mg", "result": 22, "unit": "%"}]}
{"smiles": "O=C(O)[C@H](Cc1ccc(O)cc1)NCc1cc(Cl)c(OCc2cccc(-c3ccccc3)c2Br)cc1OCc1cccnc1", "note": "[Example 21, N-(4-(2-bromo-3-phenylbenzyloxy)-5-chloro-2-(pyridin-3-yl-methyleneoxy)benzyl) tyrosine]", "values": [{"measurement": "IC50", "setting": "[3]", "result": "4.06e-07", "unit": "M"}]}
{"smiles": "CC[C@H](C)[C@H](NCc1cc(Cl)c(OCc2cccc(-c3ccccc3)c2Br)cc1OCc1cccnc1)C(=O)O", "note": "[Example 22, N-(4-(2-bromo-3-phenylbenzyloxy)-5-chloro-2-(pyridin-3-yl-methyleneoxy)benzyl) isoleucine]", "values": [{"measurement": "IC50", "setting": "[3]", "result": "4.99e-06", "unit": "M"}]}
